# Data taken from patent publication US20230257385A1, “SALT AND SOLID FORMS OF TABERNANTHALOG” (priority 2021, published 2023).
# Where a name gives a salt, the structure may show the parent alone. Read-outs that look alike come from different tables or passages of the source.
# Legend:
# [1] = cited from earlier work
# [2] = Thermocycling of the monofumarate salt (Experiment Reference 9); assay type: physicochemical; details: for XRPD (moist pellet): form (pattern) of wet pellet after thermocycling; for crystal form change following dry: moist pellet vs oven dried pellet after thermocycling, ✓ / x; for XRPD crystallinity (oven dried): tabernanthalog monofumarate salt thermocycled between 20° C. and peak T (75% of solvent b.p.), solvent, input and number of cycles per sample reference
# Procedure: The tabernanthalog monofumarate salt (Pattern #1, 75 mg, 1 wt) was weighed out in to 4 separate vials and the corresponding solvents (750 μl, 10 vol) from Table 89 were charged.
# The suspensions underwent constant amplitude thermocycling at +0.5° C./min up to 75% of the relevant solvent b.p. and −0.5° C./min down to 20° C. The thermocycle was repeated 5 times for 9-A (Experiment Reference 9-Sample Reference A) to 9-D (Experiment Reference 9-Sample Reference D) prior to working up the samples, analyzed the by XRPD (wet and dry). 9-E (Experiment Reference 9-Sample Reference E) and 9-F (Experiment Reference 9-Sample Reference F) were subjected to 10 cycles and 9-G (Experiment Reference 9-Sample Reference G) to 35 cycles.
# Thermocycling in different solvents can promote the formation of alternative polymorphic forms. The tabernanthalog monofumarate salt (Pattern #1), was heated and cooled between 20° C. and 75% of the relevant solvent b.p. at 0.5° C./minute, for 5 consecutive cycles; a 10-minute dwell was incorporated at each inflection. Thermocycling is ripening technique, that encourages particle size enlargement and promotes the evolution of the API into a stable phase. […] The products were analyzed both wet and dry to determine if form changes had occurred, all products were consistent with previously encountered patterns, and by DSC none of the products were single phase.
# [3] = Stability examination of supplied monofumarate material at 40° C./75% RH (Example 5, Experiment Reference 2); assay type: physicochemical
# [4] = Amorphous study (freeze drying, evaporation, spray drying, bead milling) of monofumarate and sorbate; assay type: physicochemical; details: 50 mg
# From the text: The purpose of this study was to generate amorphous material to be characterized and used in water activity studies. To achieve this, the two salts were exposed to a variety of techniques in attempts to generate the amorphous forms, including freeze drying, evaporation, vacuum desiccation and cryodesiccation spray drying. These techniques were not successful for the two salts Tabernanthalog·Monofumarate and Tabernanthalog·Sorbate.
# Bead milling was attempted to generate the amorphous form of Tabernanthalog·Sorbate (Tabernanthalog·Sorbate, Form A). The salt underwent neat milling and separately with the addition of tetradecafluorohexane (TDFH). The following experiments were performed: Experiment 6-Sample A1 (30 Hz, 2 h), Experiment 6-Sample A2 (30 Hz, 5.5 h) and Experiment 6-Sample A3 (30 Hz 1 h, TDFH), the products from each experiment was analysed by XRPD to determine the extent of crystallinity (FIG. 812). None of the experiments provided amorphous material.
# Each salt was charged to a 7 ml vial (50 mg, 1.0 wt). To the vial containing Tabernanthalog·Monofumarate (Tabernanthalog·Monofumarate), was charged water (10.0 vol), to fully dissolve the sample. Tabernanthalog·Sorbate (A1270-076-A1) was taken-up in ethanol/water (15% v/v, 10 vol), a further charge of water (1.0 ml), was added to ensure that the sample dissolved.
# Vials containing the salt solutions were placed on the freeze drier apparatus overnight, and the cryo-desiccated products were recovered the following morning and analysed by XRPD each product remained crystalline.
# Tabernanthalog·Monofumarate (A1272−082-A2, 51.1 mg, 1.0 wt) was charged to a 7 ml scintillation vial followed by THE (2 ml, […]), the suspension was heated to 50° C., until full dissolution was observed. The vial was stoppered by foil and a pin hole was pierced in the top. The vial was located under a steady N2 stream.
# Tabernanthalog·Sorbate (A1270−076-A1, 99.4 mg, 1.0 wt) was charged to a 7 ml scintillation vial, followed by hexafluoroisopropanol (HFIPA, 5.0 vol, 0.5 ml), after which, the sample fully dissolved. The cap was replaced by foil and pierced on the top. Solvent was allowed to evaporate, to afford a dry, brown solid that was analysed by XRPD yielding crystalline pattern #7. Sample were dried under N2 stream for 5 h and reanalysed by XRPD, remaining as pattern #7
# Tabernanthalog·Sorbate (A1270−076-A1, 50.0 mg, 1.0 wt) was charged to a 7 ml scintillation vial followed by hexafluoroisopropanol (HFIPA, 0.5 ml, 10 vol), to yield a clear solution. The solution was concentrated to dryness, by rotary evaporation, yielding an oil, that was allowed to stand undisturbed overnight.
# Tabernanthalog·Sorbate (A1270−076-A1, 50.0 mg, 1.0 wt) was charged to a 7 ml scintillation vial, followed by methanol (300 μl, 6.0 vol). The solution was clarified by filtration into a 7 ml scintillation vial, containing diethyl ether (1.0 ml, 20.0 vol).
# Tabernanthalog·Sorbate (A1270−076-A1, 102 mg, 1 wt) was charged to a 7.0 ml scintillation vial followed by methanol (1.9 ml, 19.0 vol). The solution was loaded into the spray drier apparatus.
# The procedure yielded a brown powder (30 mg, 30% th.).
# Tabernanthalog·Sorbate (A1270-076-A1, Form A) was charged to a 1.5 ml steel milling-vessel with a single 5 mm ball bearing. The sample was milled for 5.5 h at 30 Hz and yielded an off-white powder, that was analysed by XRPD, no change in crystallinity.
# [5] = Thermal study: glass transition temperature (Tg) of amorphous monofumarate and sorbate; assay type: physicochemical
# Procedure: Each salt was analysed by DSC and TGA to determine the Tg of the amorphous form. Amorphous forms were generated by thermocycling the salt past the melt temperature, cooling the sample, and once cooled the samples were reheated. Open pan and sealed pan DSC were utilised, open pan DSC were heated past the melt event, cooled, and left to stand under ambient conditions overnight.
# Sealed pans were immediately cycled with no time left to stand.
# TGA (open pan) samples were analysed by thermocycle, with no time for the sample to stand under ambient conditions.
# The amorphous forms were generated in these studies and characterised with their Tg being measured.
# A hot stage microscope heating block was used to generate the amorphous phase in-situ, to allow analysis by XRPD. A silicon XRPD sample plate was loaded with the appropriate salt. The plate was heated past the melt event, removed from the hot stage microscope block and cooled to ambient in air and analysed by XRPD to ensure that the amorphous form was generated. The amorphous material was then analysed by ^1H NMR and LC-MS to ensure there was no change in chemical composition.
# Two DSC pans were charge with the appropriate salt (Tabernanthalog·Sorbate, A1270−076-A1 and Tabernanthalog·Monofumarate, Tabernanthalog·Monofumarate), the first DSC pan was not sealed (open pan DSC), the second was sealed (hermetic sealed pan DSC). The open pan DSC was cycled from 20° C. to just after the melt event for each, cooled to −20° C. and left to stand under ambient conditions over night. The open pan DSC was then heated to just before the thermal degradation event (Tabernanthalog·Sorbate ca. 160° C., Tabernanthalog·Monofumarate ca. 210° C.) The hermetic sealed DSC was heated from 20° C. to just after the melt event, cooled to −20° C. then headed to just before the same degradation event.
# Two TGA crucibles were charged with the appropriate salt (Tabemanthalog·Sorbate, A1270-076-A1, Tabernanthalog·Monofumarate, Tabernanthalog·Monofumarate), both were thermocycled from 20° C. to past the melt event and then cooled to −20° C., each pan was then immediately heated to just before the degradation event to measure the Tg event.
# [6] = counter ion (acid), theoretical pKa value
# [7] = Amorphisation activity: Crash cool
# [8] = Amorphisation activity: Freeze dry
molecule,measurement,setting,value
Br [Hydrobromic acid],pKa1,[1]; counter ion of the salt screen,−9.00
COc1ccc2c3c([nH]c2c1)CCN(C)CC3.O=C(O)/C=C/C(=O)O [Pattern 9-A],XRPD (moist pellet),[2],Incoherent
same,crystal form change following dry,[2],✓
same,XRPD crystallinity (oven dried),[2],82.1%
CCS(=O)(=O)O [Ethanesulfonic acid],pKa1,[1]; counter ion of the salt screen,−2.10
same,pKa2,[1]; counter ion of the salt screen,−1.50
COc1ccc2c3c([nH]c2c1)CCN(C)CC3.O=C(O)/C=C/C(=O)O [Pattern 9-B],XRPD (moist pellet),[2],Pattern #1
same,XRPD crystallinity (oven dried),[2],73.6%
COc1ccc2c3c([nH]c2c1)CCN(C)CC3.O=C(O)/C=C/C(=O)O [Pattern 9-F],XRPD (moist pellet),[2],Pattern #2c
same,crystal form change following dry,[2],✓
same,XRPD crystallinity (oven dried),[2],82.3%
O=C(O)CO [Glycolic acid],pKa1,[1]; [6],3.3
same,pKa1,[1]; counter ion of the salt screen,3.30
COc1ccc2c3c([nH]c2c1)CCN(C)CC3.O=C(O)/C=C/C(=O)O [Pattern 9-C],XRPD (moist pellet),[2],Pattern #8
same,XRPD crystallinity (oven dried),[2],72.8%
O=C[C@H](O)[C@@H](O)[C@H](O)[C@H](O)C(=O)O [D-Glucuronic acid],pKa1,[1]; [6],3.2
same,pKa1,[1]; counter ion of the salt screen,3.20
COc1ccc2c3c([nH]c2c1)CCN(C)CC3.O=C(O)/C=C/C(=O)O [Tabernanthalog fumarate (CAT8931)],HPLC (% area),"[3]; 2-A, open-necked, wide vial at 75% RH/40° C., t = 2 w",97.26 % area
same,HPLC (% area),"[3]; 2-A, open-necked, wide vial at 75% RH/40° C., t = 3 w",97.01 % area
same,HPLC (% area),"[3]; 2-A, open-necked, wide vial at 75% RH/40° C., t = 4 w",97.98 % area
same,HPLC (% area),"[3]; 2-A, open-necked, wide vial at 75% RH/40° C., t = 5 w",97.34 % area
same,HPLC (% area),"[3]; 2-B, sealed PK0056 electrostatic bags at 75% RH/40° C., t = 2 w",97.44 % area
same,HPLC (% area),"[3]; 2-B, sealed PK0056 electrostatic bags at 75% RH/40° C., t = 3 w",97.02 % area
same,HPLC (% area),"[3]; 2-B, sealed PK0056 electrostatic bags at 75% RH/40° C., t = 4 w",98.38 % area
same,HPLC (% area),"[3]; 2-B, sealed PK0056 electrostatic bags at 75% RH/40° C., t = 5 w",97.54 % area
same,HPLC (% area),"[3]; input batch, before exposure",97.64 % area
O=C(O)[C@@H](O)[C@H](O)[C@H](O)[C@@H](O)C(=O)O [Galactaric acid],pKa1,[1]; [6],3.1
same,pKa2,[1]; [6],3.6
COc1ccc2c3c([nH]c2c1)CCN(C)CC3.O=C(O)/C=C/C(=O)O [Pattern 9-E],XRPD (moist pellet),[2],Pattern #2c
same,XRPD crystallinity (oven dried),[2],77.1%
COc1ccc2c3c([nH]c2c1)CCN(C)CC3.O=C(O)/C=C/C(=O)O [Pattern 9-G],XRPD (moist pellet),[2],Pattern #2c
same,XRPD crystallinity (oven dried),[2],81.1%
COc1ccc2c3c([nH]c2c1)CCN(C)CC3.O=C(O)/C=C/C(=O)O [Pattern 9-D],XRPD (moist pellet),[2],Pattern #3
same,XRPD crystallinity (oven dried),[2],74.5%
(−)-L-Malic acid,pKa1,[1]; [6],3.5
same,pKa2,[1]; [6],5.1
same,pKa1,[1]; counter ion of the salt screen,3.50
same,pKa2,[1]; counter ion of the salt screen,5.10
"O=S(=O)(O)CCS(=O)(=O)O [Ethane-1,2-disulfonic acid]",pKa1,[1]; counter ion of the salt screen,−2.10
same,pKa2,[1]; counter ion of the salt screen,−1.50
CCS(=O)(=O)O [Ethane sulfonic acid],pKa1,[1]; [6],2.05
O=C(O)[C@H](O)[C@@H](O)[C@H](O)[C@H](O)CO [D-Gluconic acid],pKa1,[1]; [6],3.8
same,pKa1,[1]; counter ion of the salt screen,3.80
COc1ccc2c3c([nH]c2c1)CCN(C)CC3.O=C(O)/C=C/C(=O)O [Tabernanthalog•Monofumarate],Form by XRPD,[4]; [7],Pattern #3
same,Outcome,[4]; [7],Crystalline
same,Form by XRPD,[4]; [8],Pattern #1
same,Outcome,[4]; [8],Crystalline
same,Form by XRPD,[4]; Amorphisation activity: THF/N2,Pattern #11
same,Outcome,[4]; Amorphisation activity: THF/N2,Crystalline
same,Outcome,"[5]; Hot plate heat up, sorbate 20 to 170 ° C., monofumarate 20 to 210 ° C.",Amorphous
same,Outcome,"[5]; Hot stage plate heat up, sorbate 20 to 170 ° C., monofumarate 20 to 210 ° C.",Almost Amorphous
same,Outcome,"[5]; Open Pan DSC, sorbate 20 to 165 to −20, O/N 20 to 230 ° C., monofumarate 20 to 210 to −20, O/N 20 to 210 ° C.",Amorphous
same,Outcome,"[5]; Sealed DSC, sorbate 20 to 165 to −20 to 230 ° C., monofumarate 20 to 210 to −20 to 210 ° C.",Amorphous
same,Outcome,"[5]; TGA, sorbate 20 to 165 to −20 to 230 ° C., monofumarate 20 to 210 to −20 to 210 ° C.",Amorphous
same,Glass temperature (Tgs),"[5]; amorphous form generated in situ, sealed DSC thermocycle (Sample B1)",63 °C
"COc1ccc2c3c([nH]c2c1)CCN(C)CC3 [supplied material (Pattern #1), 8-methoxy-3-methyl-1H,2H,3H,4H,5H,6H-azepino[4,5-b]indole fumarate]",physical and chemical stability,"[3]; 75% RH at 40° C., open vial and double polyethene bagged, up to 5 w, XRPD, HPLC, TGA, DSC, fumarate","no evidence for hydrate formation, chemical degradation or disproportionation"
